Measured values taken from PubChem BioAssay AID330 (DTP/NCI, 2004).
Where “and” joins values, the source holds several entries; their conditions need not be identical. Equal entries are not always repeated. Inconclusive results and toxic doses are left out. Rule for the calls: active = survival T/C of 150% or more; inactive = T/C below 125% in these data.

System: P388 leukemia ip, CD2F1 mice, survival T/C
Assay: NCI In Vivo Anticancer Drug Screen. Data for tumor model P388 Leukemia (intraperitoneal) in CD2F1 (CDF1) mice
Settings: endpoint: median survival time, higher = longer survival
Outline: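 Mice carrying the transplanted tumor received test compound or vehicle. Survival was recorded in each group, and the value is the treated-group measurement divided by that of the vehicle-treated control group.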

[1] = dose: 12.5 mg/kg/injection, schedule: Q01DX009 (ip), vehicle: saline with Tween-80
[2] = dose: 25.0 mg/kg/injection, schedule: Q01DX009 (ip), vehicle: saline with Tween-80
[3] = dose: 50.0 mg/kg/injection, schedule: Q01DX009 (ip), vehicle: saline with Tween-80
[4] = dose: 100.0 mg/kg/injection, schedule: Q01DX009 (ip), vehicle: saline with Tween-80
[5] = dose: 50.0 mg/kg/injection, schedule: Q01DX005 (ip), vehicle: saline with Tween-80
[6] = dose: 100.0 mg/kg/injection, schedule: Q01DX005 (ip), vehicle: saline with Tween-80
[7] = dose: 100.0 mg/kg/injection, schedule: Q01DX001 (ip), vehicle: Klucel (hydroxypropylcellulose) (HPC)
[8] = dose: 200.0 mg/kg/injection, schedule: Q01DX001 (ip), vehicle: Klucel (hydroxypropylcellulose) (HPC)
[9] = dose: 400.0 mg/kg/injection, schedule: Q01DX001 (ip), vehicle: Klucel (hydroxypropylcellulose) (HPC)
[10] = dose: 25.0 mg/kg/injection, schedule: Q01DX009 (ip), vehicle: Klucel (hydroxypropylcellulose) (HPC)
[11] = dose: 50.0 mg/kg/injection, schedule: Q01DX009 (ip), vehicle: Klucel (hydroxypropylcellulose) (HPC)
[12] = dose: 100.0 mg/kg/injection, schedule: Q01DX009 (ip), vehicle: Klucel (hydroxypropylcellulose) (HPC)
[13] = dose: 50.0 mg/kg/injection, schedule: Q01DX009 (ip), vehicle: water
[14] = dose: 200.0 mg/kg/injection, schedule: Q01DX009 (ip), vehicle: saline with Tween-80
[15] = dose: 400.0 mg/kg/injection, schedule: Q01DX009 (ip), vehicle: saline with Tween-80

Measured: T/C

Cn1c(=O)c2[nH]c(Cl)nc2n(CCCl)c1=O
inactive: [1] 100 % of control and 88 % of control | [2] 89 % of control and 98 % of control | [3] 102 % of control and 95 % of control | [4] 104 % of control and 109 % of control

CCCCN(CCCC)C(=N)/C=C/c1ccccc1
inactive: dose: 6.25 mg/kg/injection, schedule: Q01DX005 (ip), vehicle: Klucel (hydroxypropylcellulose) (HPC) 97 % of control | dose: 12.5 mg/kg/injection, schedule: Q01DX005 (ip), vehicle: Klucel (hydroxypropylcellulose) (HPC) 103 % of control

CC(=O)N/C(=C\c1ccccc1)C(=O)NC(C)C(=O)O (stereo unspecified)
inactive: [5] 89 % of control | [6] 92 % of control | dose: 200.0 mg/kg/injection, schedule: Q01DX005 (ip), vehicle: saline with Tween-80 86 % of control

CCC(C)C(NC(=O)C(Cc1cnc[nH]1)N(C(=O)OCc1ccccc1)C(=O)OCc1ccccc1)C(=O)OCc1ccccc1 (stereo unspecified)
inactive: [5] 100 % of control | [6] 93 % of control

C=C(C)OP(=O)(OCC)OCC
inactive: [7] 100 % of control | [8] 111 % of control | [9] 102 % of control

NNC(=O)COCC(=O)NN
inactive: [10] 106 % of control | [11] 100 % of control | [12] 104 % of control | dose: 200.0 mg/kg/injection, schedule: Q01DX009 (ip), vehicle: Klucel (hydroxypropylcellulose) (HPC) 100 % of control

COc1cccc(CN2CCCNCC2)c1
inactive: dose: 6.25 mg/kg/injection, schedule: Q01DX009 (ip), vehicle: water 93 % of control | dose: 12.5 mg/kg/injection, schedule: Q01DX009 (ip), vehicle: water 93 % of control | dose: 25.0 mg/kg/injection, schedule: Q01DX009 (ip), vehicle: water 97 % of control | [13] 101 % of control

CCN(CC)CCNc1cc(O)c2c(c1O)C(=O)c1ccccc1C2=O
inactive: dose: 25.0 mg/kg/injection, schedule: Q04DX002 (ip), vehicle: saline with Tween-80 105 % of control | dose: 50.0 mg/kg/injection, schedule: Q04DX002 (ip), vehicle: saline with Tween-80 98 % of control | dose: 100.0 mg/kg/injection, schedule: Q04DX002 (ip), vehicle: saline with Tween-80 103 % of control and 107 % of control

COc1ccc(/C=C/C(=O)c2ccc3c(c2)OCO3)cc1OC
inactive: [1] 98 % of control | [2] 98 % of control and 100 % of control | [3] 99 % of control and 101 % of control | [4] 100 % of control and 94 % of control | [14] 103 % of control and 93 % of control | dose: 200.0 mg/kg/injection, schedule: Q04DX003 (ip), vehicle: saline with Tween-80 109 % of control | dose: 300.0 mg/kg/injection, schedule: Q01DX009 (ip), vehicle: saline with Tween-80 93 % of control | [15] 100 % of control | dose: 400.0 mg/kg/injection, schedule: Q04DX003 (ip), vehicle: saline with Tween-80 109 % of control

NC(=O)c1ccc[n+](CCC[n+]2cccc(C(N)=O)c2)c1
inactive: dose: 60.0 mg/kg/injection, schedule: Q01DX005 (ip), vehicle: saline 103 % of control | dose: 120.0 mg/kg/injection, schedule: Q01DX005 (ip), vehicle: saline 101 % of control | dose: 240.0 mg/kg/injection, schedule: Q01DX005 (ip), vehicle: saline 99 % of control

O=C(/C=C(\C(=O)c1ccccc1)c1ccccc1)c1ccccc1
inactive: dose: 50.0 mg/kg/injection, schedule: Q01DX009 (ip), vehicle: saline sonified 100 % of control | dose: 100.0 mg/kg/injection, schedule: Q01DX009 (ip), vehicle: saline sonified 100 % of control | dose: 200.0 mg/kg/injection, schedule: Q01DX009 (ip), vehicle: saline sonified 100 % of control

COc1cc2ccc(CCNCc3ccccc3)cc2cc1OC
inactive: dose: 12.5 mg/kg/injection, schedule: Q01DX009 (ip), vehicle: Klucel (hydroxypropylcellulose) (HPC) 95 % of control | [10] 94 % of control | [11] 95 % of control | [12] 90 % of control

O=C(Sc1ccc(F)cc1)N1CCN(C(=O)Sc2ccc(F)cc2)CC1
inactive: dose: 50.0 mg/kg/injection, schedule: Q01DX005 (ip), vehicle: Klucel (hydroxypropylcellulose) (HPC) 99 % of control | dose: 100.0 mg/kg/injection, schedule: Q01DX005 (ip), vehicle: Klucel (hydroxypropylcellulose) (HPC) 96 % of control | dose: 200.0 mg/kg/injection, schedule: Q01DX005 (ip), vehicle: Klucel (hydroxypropylcellulose) (HPC) 100 % of control

O=C(O)CCSC(=S)NN1CCN(NC(=S)SCCC(=O)O)CC1
inactive: dose: 60.0 mg/kg/injection, schedule: Q01DX005 (ip), vehicle: Klucel (hydroxypropylcellulose) (HPC) 108 % of control | dose: 120.0 mg/kg/injection, schedule: Q01DX005 (ip), vehicle: Klucel (hydroxypropylcellulose) (HPC) 100 % of control | dose: 240.0 mg/kg/injection, schedule: Q01DX005 (ip), vehicle: Klucel (hydroxypropylcellulose) (HPC) 96 % of control

O=[N+]([O-])c1cnc(/C=N/N2CCN(/N=C/c3ncc([N+](=O)[O-])[nH]3)CC2)[nH]1
inactive: [1] 90 % of control | [2] 89 % of control | [3] 88 % of control

CN(CNC(N)=O)N=O
inactive: [13] 99 % of control | dose: 100.0 mg/kg/injection, schedule: Q01DX009 (ip), vehicle: water 108 % of control | dose: 200.0 mg/kg/injection, schedule: Q01DX009 (ip), vehicle: water 107 % of control

CCC[CH2][Sn]([CH2]CCN(C)C)([CH2]CCN(C)C)[CH2]CCN(C)C
inactive: [3] 100 % of control | [4] 107 % of control

CC(C)=NOCc1ccccc1
inactive: dose: 2.5 mg/kg/injection, schedule: Q01DX009 (ip), vehicle: Klucel (hydroxypropylcellulose) (HPC) 119 % of control | dose: 5.0 mg/kg/injection, schedule: Q01DX009 (ip), vehicle: Klucel (hydroxypropylcellulose) (HPC) 120 % of control | dose: 10.0 mg/kg/injection, schedule: Q01DX009 (ip), vehicle: Klucel (hydroxypropylcellulose) (HPC) 117 % of control | [11] 94 % of control | [12] 98 % of control

CC(C)(C)C1=CC2(c3ccccn3)C(Cl)C(=O)N2NC(c2ccccn2)=N1 (stereo unspecified)
inactive: dose: 25.0 mg/kg/injection, schedule: Q01DX009 (ip), vehicle: other 98 % of control | dose: 50.0 mg/kg/injection, schedule: Q01DX009 (ip), vehicle: other 101 % of control | dose: 100.0 mg/kg/injection, schedule: Q01DX009 (ip), vehicle: other 98 % of control | dose: 200.0 mg/kg/injection, schedule: Q01DX009 (ip), vehicle: other 93 % of control

O=C1C=CC2(CCCCC2)CC1
inactive: dose: 25.0 mg/kg/injection, schedule: Q04DX003 (ip), vehicle: Klucel (hydroxypropylcellulose) (HPC) 97 % of control | dose: 50.0 mg/kg/injection, schedule: Q04DX003 (ip), vehicle: Klucel (hydroxypropylcellulose) (HPC) 97 % of control | dose: 100.0 mg/kg/injection, schedule: Q04DX003 (ip), vehicle: Klucel (hydroxypropylcellulose) (HPC) 95 % of control

O=c1[nH]cc(I)cc1I
inactive: [4] 95 % of control | [14] 95 % of control | [15] 90 % of control

Nc1nc2ccccc2n1/N=C/c1ccccc1[N+](=O)[O-]
inactive: [7] 90 % of control | [8] 100 % of control | [9] 98 % of control
